# Measurements as given in patent US20220088016A1, “CANCER TREATMENT USING MULTI-TARGETED KINASE INHIBITOR IN COMBINATION OF PROTEIN KINASE BIOMARKERS” (ZHEJIANG CROWNMAB BIOTECH CO. LTD., priority 2019, published 2022).
# Legend:
# Assay in all cases: Kinase IC50 (Eurofins KinaseProfiler)
# Assay type in all cases: biochemical
# [1] = target: T1, EphB4 (h) (Homo sapiens, UniProt P54760)
# T1 construct: purchased Eurofins (KinaseProfiler service)
# Procedure: (§1) CBT-102 were tested against each of the selected kinases using the Eurofins standard KinaseProfder assays and following the relevant standard operating procedures. The required volume of the 50× stock of test compound (CBT-102) was added to the assay well, before a reaction mix containing the enzyme and substrate was added. The reaction was initiated by the addition of ATP at the selected concentration. There was no pre-incubation of the compound with the enzyme/substrate mix prior to ATP addition.
# (§2) Data are handled using a custom-built in-house analysis software. Results are expressed as kinase activity remaining, as a percentage of the DMSO control. This is calculated using the following formula: […]
# (§3) For IC50 determinations, data are analyzed using XLFit version 5.3 (ID Business Solutions).
# [2] = target: T2, Aurora-A (h) (Homo sapiens, UniProt O14965)
# T2 construct: purchased Eurofins
# Procedure: as §1, §2, §3
# [3] = target: T3, Pim-1 (h) (Homo sapiens, UniProt P11309)
# T3 construct: purchased Eurofins
# Procedure: as §1, §2, §3
# [4] = target: T4, PKBα (h) (Homo sapiens, UniProt P31749)
# T4 construct: purchased Eurofins
# Procedure: as §1, §2, §3
# [5] = target: T5, PDGFRβ (h) (Homo sapiens, UniProt P09619)
# T5 construct: purchased Eurofins (KinaseProfiler service)
# Procedure: as §1, §2, §3
# [6] = target: T6, IKKβ (h) (Homo sapiens, UniProt O14920)
# T6 construct: purchased Eurofins (KinaseProfiler service)
# Procedure: as §1, §2, §3
# [7] = target: T7, KDR (h) (Homo sapiens, UniProt P35968)
# T7 construct: purchased Eurofins (KinaseProfiler service)
# Procedure: as §1, §2, §3
# [8] = target: T8, Ret (h) (Homo sapiens, UniProt P07949)
# T8 construct: purchased Eurofins
# Procedure: as §1, §2, §3
# [9] = target: T9, Wee1 (h) (Homo sapiens, UniProt P30291)
# T9 construct: purchased Eurofins
# Procedure: as §1, §2, §3
# [10] = target: T10, TYK2 (h) (Homo sapiens, UniProt P29597)
# T10 construct: purchased Eurofins
# Procedure: as §1, §2, §3
# [11] = target: T11, BRK (h) (Homo sapiens, UniProt Q13882)
# T11 construct: purchased Eurofins
# Procedure: as §1, §2, §3
# [12] = target: T12, SAPK4 (h) (Homo sapiens, UniProt O15264)
# T12 construct: purchased Eurofins
# Procedure: as §1, §2, §3
# [13] = target: T13, B-Raf (V599E) (h) (Homo sapiens, UniProt P15056, V600E)
# T13 construct: purchased Eurofins
# Procedure: as §1, §2, §3
# [14] = target: T14, EGFR (h) (Homo sapiens, UniProt P00533)
# T14 construct: purchased Eurofins (KinaseProfiler service)
# Procedure: as §1, §2, §3
# [15] = target: T15, Abl (h) (Homo sapiens, UniProt P00519)
# T15 construct: purchased Eurofins
# Procedure: as §1, §2, §3
# [16] = target: T16, CDKL2 (h) (Homo sapiens, UniProt Q92772)
# T16 construct: purchased Eurofins (KinaseProfiler service)
# Procedure: as §1, §2, §3
# [17] = target: T17, Aurora-B (h) (Homo sapiens, UniProt Q96GD4)
# T17 construct: purchased Eurofins
# Procedure: as §1, §2, §3
# [18] = target: T18, Plk1 (h) (Homo sapiens, UniProt P53350)
# T18 construct: purchased Eurofins
# Procedure: as §1, §2, §3
# [19] = target: T19, Lck (h) (Homo sapiens, UniProt P06239)
# T19 construct: purchased Eurofins (KinaseProfiler service)
# Procedure: as §1, §2, §3
# [20] = target: T20, Fgr (h) (Homo sapiens, UniProt P09769)
# T20 construct: purchased Eurofins (KinaseProfiler service)
# Procedure: as §1, §2, §3
# [21] = target: T21, Aurora-C (h) (Homo sapiens, UniProt Q9UQB9)
# T21 construct: purchased Eurofins
# Procedure: as §1, §2, §3
# [22] = target: T22, MAP4K5 (h) (Homo sapiens, UniProt Q9Y4K4)
# T22 construct: purchased Eurofins (KinaseProfiler service)
# Procedure: as §1, §2, §3
# [23] = target: T23, CDKL3 (h) (Homo sapiens, UniProt Q8IVW4)
# T23 construct: purchased Eurofins (KinaseProfiler service)
# Procedure: as §1, §2, §3
# [24] = target: T24, CHK1 (h) (Homo sapiens, UniProt O14757)
# T24 construct: purchased Eurofins (KinaseProfiler service)
# Procedure: as §1, §2, §3
# [25] = target: T25, EphB3 (h) (Homo sapiens, UniProt P54753)
# T25 construct: purchased Eurofins (KinaseProfiler service)
# Procedure: as §1, §2, §3
# [26] = target: T26, RIPK2 (h) (Homo sapiens, UniProt O43353)
# T26 construct: purchased Eurofins
# Procedure: as §1, §2, §3
# [27] = target: T27, EphA1 (h) (Homo sapiens, UniProt P21709)
# T27 construct: purchased Eurofins (KinaseProfiler service)
# Procedure: as §1, §2, §3
# [28] = target: T28, Tie2 (h) (Homo sapiens, UniProt Q02763)
# T28 construct: purchased Eurofins
# Procedure: as §1, §2, §3
# [29] = target: T29, SGK3 (h) (Homo sapiens, UniProt Q96BR1)
# T29 construct: purchased Eurofins
# Procedure: as §1, §2, §3
# [30] = target: T30, ErbB4 (h) (Homo sapiens, UniProt Q15303)
# T30 construct: purchased Eurofins (KinaseProfiler service)
# Procedure: as §1, §2, §3
# [31] = target: T31, MLK1 (h) (Homo sapiens, UniProt P80192)
# T31 construct: purchased Eurofins (KinaseProfiler service)
# Procedure: as §1, §2, §3
# [32] = target: T32, FGFR1 (h) (Homo sapiens, UniProt P11362)
# T32 construct: purchased Eurofins (KinaseProfiler service)
# Procedure: as §1, §2, §3
# [33] = target: T33, SAPK3 (h) (Homo sapiens, UniProt P53778)
# T33 construct: purchased Eurofins
# Procedure: as §1, §2, §3
# [34] = target: T34, NEK2 (h) (Homo sapiens, UniProt P51955)
# T34 construct: purchased Eurofins (KinaseProfiler service)
# Procedure: as §1, §2, §3
# [35] = target: T35, ErbB2 (h) (Homo sapiens, UniProt P04626)
# T35 construct: purchased Eurofins (KinaseProfiler service)
# Procedure: as §1, §2, §3
# T21 sequence (Q9UQB9 whole entry): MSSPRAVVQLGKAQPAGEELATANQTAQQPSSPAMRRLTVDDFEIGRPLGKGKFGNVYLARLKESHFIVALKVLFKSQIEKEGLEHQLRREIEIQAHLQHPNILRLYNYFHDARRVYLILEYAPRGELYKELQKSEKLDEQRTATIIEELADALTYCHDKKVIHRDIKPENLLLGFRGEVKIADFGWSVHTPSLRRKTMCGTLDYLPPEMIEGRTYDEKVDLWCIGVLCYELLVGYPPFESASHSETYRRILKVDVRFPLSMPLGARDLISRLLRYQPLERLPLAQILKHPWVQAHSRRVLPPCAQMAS
# T5 sequence (P09619 33-1106): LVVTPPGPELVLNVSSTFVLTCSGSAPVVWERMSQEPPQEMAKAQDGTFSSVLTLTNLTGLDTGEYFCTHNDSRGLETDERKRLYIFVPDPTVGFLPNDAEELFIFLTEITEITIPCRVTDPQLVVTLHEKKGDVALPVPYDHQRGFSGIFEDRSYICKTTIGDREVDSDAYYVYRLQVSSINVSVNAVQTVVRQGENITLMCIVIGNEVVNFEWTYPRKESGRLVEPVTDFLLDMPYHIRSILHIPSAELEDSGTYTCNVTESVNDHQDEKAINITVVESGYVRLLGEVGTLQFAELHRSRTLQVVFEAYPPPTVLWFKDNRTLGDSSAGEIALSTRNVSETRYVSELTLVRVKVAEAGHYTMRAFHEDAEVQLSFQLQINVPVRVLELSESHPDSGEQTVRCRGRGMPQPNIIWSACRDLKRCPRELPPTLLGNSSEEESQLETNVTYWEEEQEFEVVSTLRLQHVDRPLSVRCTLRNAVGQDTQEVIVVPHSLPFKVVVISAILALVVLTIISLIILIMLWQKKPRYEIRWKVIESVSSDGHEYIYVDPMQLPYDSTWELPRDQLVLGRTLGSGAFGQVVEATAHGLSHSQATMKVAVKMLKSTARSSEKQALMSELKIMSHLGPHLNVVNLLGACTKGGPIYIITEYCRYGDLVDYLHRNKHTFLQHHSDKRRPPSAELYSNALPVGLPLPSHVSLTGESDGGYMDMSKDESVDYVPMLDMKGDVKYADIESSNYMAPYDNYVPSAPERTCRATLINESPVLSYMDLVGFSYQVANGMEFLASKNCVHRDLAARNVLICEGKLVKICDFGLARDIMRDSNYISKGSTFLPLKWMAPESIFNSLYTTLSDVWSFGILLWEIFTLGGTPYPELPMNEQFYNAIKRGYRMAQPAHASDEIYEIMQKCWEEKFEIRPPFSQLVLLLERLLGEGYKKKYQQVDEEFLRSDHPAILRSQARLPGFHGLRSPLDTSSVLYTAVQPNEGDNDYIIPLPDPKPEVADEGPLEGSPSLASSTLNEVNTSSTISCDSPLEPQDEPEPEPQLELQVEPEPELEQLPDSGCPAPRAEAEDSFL
# T13 sequence (P15056 417-766 V600E limits assumed): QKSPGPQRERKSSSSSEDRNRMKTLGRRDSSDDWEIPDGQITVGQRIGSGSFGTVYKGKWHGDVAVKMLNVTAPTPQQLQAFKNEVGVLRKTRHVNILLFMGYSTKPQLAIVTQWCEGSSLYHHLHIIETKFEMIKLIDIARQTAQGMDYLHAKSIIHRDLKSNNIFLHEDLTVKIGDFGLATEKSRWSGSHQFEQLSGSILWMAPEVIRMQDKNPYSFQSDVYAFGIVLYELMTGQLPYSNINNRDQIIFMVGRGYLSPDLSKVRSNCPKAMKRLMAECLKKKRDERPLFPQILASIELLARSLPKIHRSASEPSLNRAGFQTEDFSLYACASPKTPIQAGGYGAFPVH
# T6 sequence (O14920 whole entry): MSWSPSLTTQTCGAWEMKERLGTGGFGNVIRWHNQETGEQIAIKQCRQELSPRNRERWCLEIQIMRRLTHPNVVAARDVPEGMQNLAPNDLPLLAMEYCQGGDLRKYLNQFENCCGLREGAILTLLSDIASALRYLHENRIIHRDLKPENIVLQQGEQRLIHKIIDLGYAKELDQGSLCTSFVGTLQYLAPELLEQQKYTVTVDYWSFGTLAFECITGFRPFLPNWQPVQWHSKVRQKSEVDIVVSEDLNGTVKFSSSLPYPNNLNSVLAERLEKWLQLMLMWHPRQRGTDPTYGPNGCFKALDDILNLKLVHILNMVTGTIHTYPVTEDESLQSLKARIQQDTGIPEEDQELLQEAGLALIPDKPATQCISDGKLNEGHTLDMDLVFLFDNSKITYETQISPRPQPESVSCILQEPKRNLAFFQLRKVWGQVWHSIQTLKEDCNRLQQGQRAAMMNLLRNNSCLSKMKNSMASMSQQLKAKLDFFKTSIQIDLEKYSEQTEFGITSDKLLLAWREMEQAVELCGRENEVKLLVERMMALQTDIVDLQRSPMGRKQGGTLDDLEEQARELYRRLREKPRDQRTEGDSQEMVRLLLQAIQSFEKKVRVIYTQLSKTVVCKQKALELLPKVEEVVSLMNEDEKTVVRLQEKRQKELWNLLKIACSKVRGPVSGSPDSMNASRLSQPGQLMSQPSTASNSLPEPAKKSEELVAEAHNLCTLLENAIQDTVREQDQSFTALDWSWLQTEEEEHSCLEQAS
# T12 sequence (O15264 whole entry): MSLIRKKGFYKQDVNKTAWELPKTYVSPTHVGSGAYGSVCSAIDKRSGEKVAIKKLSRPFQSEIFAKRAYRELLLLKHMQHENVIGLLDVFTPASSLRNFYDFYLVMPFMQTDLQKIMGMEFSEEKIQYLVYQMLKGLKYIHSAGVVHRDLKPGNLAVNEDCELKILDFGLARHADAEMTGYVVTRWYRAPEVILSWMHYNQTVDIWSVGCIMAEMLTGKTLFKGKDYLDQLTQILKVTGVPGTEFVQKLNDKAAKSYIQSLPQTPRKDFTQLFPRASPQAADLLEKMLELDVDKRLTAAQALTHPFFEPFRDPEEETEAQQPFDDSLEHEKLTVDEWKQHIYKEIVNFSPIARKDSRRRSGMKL
# T18 sequence (P53350 whole entry): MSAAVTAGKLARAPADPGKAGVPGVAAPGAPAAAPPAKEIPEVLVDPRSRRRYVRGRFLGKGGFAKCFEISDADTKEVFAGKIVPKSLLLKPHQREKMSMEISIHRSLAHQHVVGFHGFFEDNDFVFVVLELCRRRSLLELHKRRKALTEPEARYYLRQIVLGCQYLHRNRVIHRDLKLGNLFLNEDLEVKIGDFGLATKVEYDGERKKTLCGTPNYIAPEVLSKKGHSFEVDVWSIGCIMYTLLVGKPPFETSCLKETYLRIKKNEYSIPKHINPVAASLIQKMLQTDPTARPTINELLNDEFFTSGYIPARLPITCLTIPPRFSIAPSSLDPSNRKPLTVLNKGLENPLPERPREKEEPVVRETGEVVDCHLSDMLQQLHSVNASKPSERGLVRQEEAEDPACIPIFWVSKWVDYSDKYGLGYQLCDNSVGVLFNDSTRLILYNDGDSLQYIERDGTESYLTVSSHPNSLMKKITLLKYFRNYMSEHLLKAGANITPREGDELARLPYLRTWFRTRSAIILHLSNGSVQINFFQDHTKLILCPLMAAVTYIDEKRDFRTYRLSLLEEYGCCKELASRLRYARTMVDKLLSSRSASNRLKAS
# T27 sequence (P21709 26-976): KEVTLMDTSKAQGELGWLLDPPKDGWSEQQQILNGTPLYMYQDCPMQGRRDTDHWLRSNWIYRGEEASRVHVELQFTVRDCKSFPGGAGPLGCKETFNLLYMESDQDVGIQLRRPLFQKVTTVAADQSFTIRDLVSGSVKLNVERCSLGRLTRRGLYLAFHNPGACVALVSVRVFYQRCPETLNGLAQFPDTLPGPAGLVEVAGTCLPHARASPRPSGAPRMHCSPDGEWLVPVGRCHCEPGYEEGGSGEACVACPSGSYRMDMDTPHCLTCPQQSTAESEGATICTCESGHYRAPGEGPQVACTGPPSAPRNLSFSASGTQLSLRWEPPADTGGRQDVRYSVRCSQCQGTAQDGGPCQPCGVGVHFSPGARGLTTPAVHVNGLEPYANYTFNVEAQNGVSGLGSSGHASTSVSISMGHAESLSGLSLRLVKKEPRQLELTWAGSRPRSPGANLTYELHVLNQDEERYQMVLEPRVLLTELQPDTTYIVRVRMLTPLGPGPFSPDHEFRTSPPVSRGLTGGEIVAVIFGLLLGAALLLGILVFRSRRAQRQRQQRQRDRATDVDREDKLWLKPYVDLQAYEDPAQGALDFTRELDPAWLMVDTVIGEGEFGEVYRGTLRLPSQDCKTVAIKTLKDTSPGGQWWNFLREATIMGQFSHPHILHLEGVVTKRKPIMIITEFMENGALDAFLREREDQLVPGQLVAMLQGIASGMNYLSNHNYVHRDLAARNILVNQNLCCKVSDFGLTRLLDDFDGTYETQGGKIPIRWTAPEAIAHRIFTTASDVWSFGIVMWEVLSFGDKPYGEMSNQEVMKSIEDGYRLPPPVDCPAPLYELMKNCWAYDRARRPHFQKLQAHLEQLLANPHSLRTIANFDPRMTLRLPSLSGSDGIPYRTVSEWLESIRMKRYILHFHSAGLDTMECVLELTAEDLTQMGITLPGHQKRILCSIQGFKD
# T20 sequence (P09769 whole entry): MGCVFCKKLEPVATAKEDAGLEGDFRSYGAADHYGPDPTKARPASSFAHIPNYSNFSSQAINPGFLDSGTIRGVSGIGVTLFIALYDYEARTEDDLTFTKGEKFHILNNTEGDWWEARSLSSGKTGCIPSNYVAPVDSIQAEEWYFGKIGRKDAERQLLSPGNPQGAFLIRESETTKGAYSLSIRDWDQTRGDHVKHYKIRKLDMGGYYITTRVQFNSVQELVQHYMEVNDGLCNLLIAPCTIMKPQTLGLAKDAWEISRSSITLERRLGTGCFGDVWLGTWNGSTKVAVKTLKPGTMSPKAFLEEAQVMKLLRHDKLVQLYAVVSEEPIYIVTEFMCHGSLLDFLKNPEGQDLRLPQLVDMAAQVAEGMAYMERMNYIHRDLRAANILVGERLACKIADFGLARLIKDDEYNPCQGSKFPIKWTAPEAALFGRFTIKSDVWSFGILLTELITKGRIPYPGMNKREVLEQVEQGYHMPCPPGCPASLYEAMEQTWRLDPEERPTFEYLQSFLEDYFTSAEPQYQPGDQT
compound,measurement,setting,value
Cc1cc(Oc2cc(NC(=O)C3CC3)ncn2)ccc1NC(=O)Nc1ccc(Cl)c(C(F)(F)F)c1 [CBT-102],IC50,[1],486 nM
same,IC50,[2],1770 nM
same,IC50,[3],> 10000 nM
same,IC50,[4],> 10000 nM
same,IC50,[5],1320 nM
same,IC50,[6],> 10000 nM
same,IC50,[7],25 nM
same,IC50,[8],43 nM
same,IC50,[9],> 10000 nM
same,IC50,[10],> 10000 nM
same,IC50,[11],> 10000 nM
same,IC50,[12],228 nM
same,IC50,[13],115 nM
same,IC50,[14],> 10000 nM
same,IC50,[15],1830 nM
same,IC50,[16],37 nM
same,IC50,[17],525 nM
same,IC50,[18],> 10000 nM
same,IC50,[19],1340 nM
same,IC50,[20],1430 nM
same,IC50,[21],> 10000 nM
same,IC50,[22],24 nM
same,IC50,[23],> 10000 nM
same,IC50,[24],> 10000 nM
same,IC50,[25],> 10000 nM
same,IC50,[26],107 nM
same,IC50,[27],1110 nM
same,IC50,[28],242 nM
same,IC50,[29],> 10000 nM
same,IC50,[30],> 10000 nM
same,IC50,[31],6060 nM
same,IC50,[32],410 nM
same,IC50,[33],1200 nM
same,IC50,[34],> 10000 nM
same,IC50,[35],> 10000 nM
